Test results from US9808470B2, “Estrogenic components for use in the treatment of neurological disorders” (UNIVERSITE DE LIEGE, priority 2012, dated 2017).

Tests used:
[1] = tested on: glial fibrillary acidic protein (GFAP); assay: Ex.3 neuroprotective HIE rat model: blood serum GFAP ELISA; format: in vivo; settings: 50 mg/kg E4 ip PND4-7 before HI; PND14
Protocol: Blood was withdrawn, centrifuged and the serum samples were stored at −80° C.
ELISAs for detecting the brain damage markers S100B protein (Catalog# CSB-E08066r, Cusabio Biotech Co., LTD, China), and glial fibrillary acidic protein (GFAP) (Catalog# E90068Ra, Uscn Life sciences Inc., China) in blood serum samples were performed according to the manufacturers' recommendations.
Newborn rat pups were assigned to one of the following 6 groups from postnatal day 4: Sham group (n=24), Vehicle group (n=14), E4 1 mg/kg/per day group (n=11), E4 5 mg/kg/per day group (n=14), E4 10 mg/kg/per day group (n=14), or E4 50 mg/kg/per day group (n=19). From postnatal day 4, rat pups were intraperitoneally injected either vehicle (Vehicle group) or E4 (1, 5, 10, or 50 mg/kg/per day in accordance to the E4 group assignment) or neither vehicle nor E4 (Sham group). At day 7, 30 minutes after last injection, animals were anesthetized with isoflurane (induction, 3.0%; maintenance, 1.5%), and the rat pups from Vehicle and E4 groups passed through surgery encompassing left common carotid artery double ligation and cut. After the procedure, the pups were returned to their dams and were allowed to recover for 1 hour. The pups were then placed in the humidified hypoxic in vivo cabinet (CoyLab, Grass Lake, Mich., USA). […]

[2] = Ex.3 neuroprotective HIE rat model: brain weight; format: in vivo; settings: PND14
Protocol: Animals were then perfused transcardially with 0.9% saline solution at 4° C., and then with 4% paraformaldehyde in a 0.1-mol/L phosphate-buffered saline solution (pH 7.4) at 4° C. The brains were quickly isolated, weighed and immersed in the same fixative solution at 4° C. for 24 hours, dehydrated with a graded series of ethanol and xylene, and embedded in paraffin.
(§1) Newborn rat pups were assigned to one of the following 6 groups from postnatal day 4: Sham group (n=24), Vehicle group (n=14), E4 1 mg/kg/per day group (n=11), E4 5 mg/kg/per day group (n=14), E4 10 mg/kg/per day group (n=14), or E4 50 mg/kg/per day group (n=19). From postnatal day 4, rat pups were intraperitoneally injected either vehicle (Vehicle group) or E4 (1, 5, 10, or 50 mg/kg/per day in accordance to the E4 group assignment) or neither vehicle nor E4 (Sham group). At day 7, 30 minutes after last injection, animals were anesthetized with isoflurane (induction, 3.0%; maintenance, 1.5%), and the rat pups from Vehicle and E4 groups passed through surgery encompassing left common carotid artery double ligation and cut. After the procedure, the pups were returned to their dams and were allowed to recover for 1 hour. The pups were then placed in the humidified hypoxic in vivo cabinet (CoyLab, Grass Lake, Mich., USA). Hypoxia was produced by the inhalation of 11%-8% of oxygen balanced by nitrogen at decreased concentration of oxygen for 20 minutes, followed by inhalation of 8% oxygen and 92% nitrogen at constant concentration for 35 minutes. All the manipulations were performed at 37° C. The Sham group went through similar procedures without left common carotid artery ligation followed by hypoxia nor injection. Rat pups recovered with their dams and reared normally until being sacrificed at postnatal day 14.

[3] = tested on: vascular endothelial growth factor (VEGF); assay: Ex.3 neuroprotective HIE rat model: VEGF staining; format: in vivo
Protocol: (§2) The sections were heated in 10 mmol/L citrate buffer (pH 6.0) at 100° C. for 10 minutes. Endogenous peroxidase activity was blocked with 3% hydrogen peroxide for 10 minutes and after a second blocking with 5% normal goat serum, the sections were incubated with anti-doublecortin (DCX) antibody, diluted 1:1000 (rabbit polyclonal antibody; Abcam, Cambridge, UK) and anti-vascular endothelial growth factor (VEGF) antibody, diluted 1:100 (mouse monoclonal antibody; Abcam, Cambridge, UK) overnight at 4° C. After rinsing, Alexa Fluor® goat anti-rabbit, diluted 1:1000 and Alexa Fluor® goat anti-mouse, diluted 1:1000 (Invitrogen Inc., Ghent, Belgium) were added and sections were incubated 1 h at room temperature. Mounting medium containing 4′,6-diamidino-2-phenylindole (DAPI) for fluorescent studies was used (Vector Laboratories). Samples were analyzed with the aid of a microscope (Olympus Vanox AHBT3, Olympus), and the ImageJ software (NIH). The percentage of positively stained cells was quantified as a sum of positively stained either DCX or VEGF cells divided by the total number of DAPI positive cells expressed in percentage.
as §1

[4] = tested on: vascular endothelial growth factor (VEGF); assay: Ex.4 therapeutic HIE rat model: VEGF staining; format: in vivo
Protocol: as §2
To study the therapeutic effect of estetrol, newborn rat pups were assigned to one of the following 6 groups at postnatal day 7: sham group (n=29), vehicle group (n=20), 1 mg/kg E4 group (n=16), 5 mg/kg E4 group (n=19), 10 mg/kg day E4 (n=17) and 50 mg/kg day E4 group (n=15). At postnatal day 7 animals were anesthetized with isoflurane (induction, 3.0%; maintenance, 1.5%), and the rat pups from vehicle and E4 groups passed through surgery encompassing left common carotid artery double ligation and cut. After surgery, the pups were returned to their dams and allowed to recover for 1 hour. The pups were then placed in a humidified hypoxic in vivo cabinet (CoyLab). Hypoxia was produced by the inhalation of 11%-8% of oxygen balanced by nitrogen at decreased concentration of oxygen for 20 minutes, followed by inhalation of 8% oxygen and 92% nitrogen at constant concentration for 35 minutes. All the manipulations were performed at 37° C.
Upon retrieval from the hypoxia chamber the rat pups were injected intraperitoneally either by vehicle (vehicle group) or by E4 (1 mg/kg, 5 mg/kg, 10 mg/kg or 50 mg/kg) in accordance to the group assignment. The animals from the sham group went through similar procedures but proceeded neither left common carotid artery ligation and cut followed by hypoxia nor vehicle or estetrol administration. Rat pups recovered with their dams until being sacrificed at postnatal day 14.

[5] = tested on: cytosolic estrogen receptors; settings: competitive receptor binding, relative to E2; cited from earlier work
[6] = Ex.3 neuroprotective HIE rat model: body weight; format: in vivo
Protocol: as §1
To monitor the post-operative well-being of the rat pups due to the performed manipulations and estetrol pre-treatment, the body weight was monitored from postnatal day 7 to day 14 inclusive.

For C[C@]12CC[C@@H]3c4ccc(O)cc4CC[C@H]3[C@@H]1[C@@H](O)[C@@H](O)[C@@H]2O [E4, 1,3,5(10)-estratrien-3,15α,16α,17β-tetrol], the “concentration of GFAP in blood serum” value [1] was 300.388 ± 31.232 pg/mL, the brain weight ([2]; 1 mg/kg E4 ip PND4-7 before HI) was 1.155 ± 0.022 g and the brain weight ([2]; 5 mg/kg E4 ip PND4-7 before HI) was 1.181 ± 0.023 g. For the same compound, the brain weight ([2]; 10 mg/kg E4 ip PND4-7 before HI) was 1.179 ± 0.012 g, the brain weight ([2]; 50 mg/kg E4 ip PND4-7 before HI) was 1.163 ± 0.016 g and the “percentage of VEGF positively stained cells” value (from here on “percentage”) ([3]; 1 mg/kg E4 ip PND4-7 before HI, CA2/CA3) was 34.1±6.855%. The “percentage” value ([3]; 1 mg/kg E4 ip PND4-7 before HI, DG) was 43.5±2.083%, the “percentage” value ([3]; 5 mg/kg E4 ip PND4-7 before HI, DG) was 46.0±4.361% and the “percentage” value ([3]; 10 mg/kg E4 ip PND4-7 before HI, CA1) was 37.4±7.645%. The “percentage” value ([3]; 10 mg/kg E4 ip PND4-7 before HI, DG) was 47.0±5.362%, the “percentage” value ([3]; 10 mg/kg E4 ip PND4-7 before HI, cortex) was 46.2±7.646% and the “percentage” value ([3]; 50 mg/kg E4 ip PND4-7 before HI, DG) was 46.0±4.465%. The “percentage” value ([4]; 5 mg/kg E4 single ip dose after HI, CA1) was 37.4±4.833%, the “percentage” value ([4]; 10 mg/kg E4 single ip dose after HI, CA1) was 37.1±3.84% and the “percentage” value ([4]; 10 mg/kg E4 single ip dose after HI, cortex) was 49.4±4.949%. The “percentage” value ([4]; 50 mg/kg E4 single ip dose after HI, CA1) was 45.1±4.753%, the “percentage” value ([4]; E4 1, 5, 10, 50 mg/kg single ip dose after HI, CA2/CA3, between study groups) was “not significantly different between the study groups” and the VEGF staining ([4]; E4 1, 5, 10, 50 mg/kg single ip dose after HI, DG, among study groups) was “neither DCX nor VEGF staining was significantly different”. The “values for cytosolic estrogen receptor binding” value [5] was 0.015, the body weight ([6]; 1 mg/kg ip PND4-7 before HI, PND 10, 11 and 12, vs vehicle) was “significantly higher body weight than the vehicle group” and the body weight ([6]; 1 mg/kg ip PND4-7 before HI, PND 14, vs vehicle) was “significantly higher body weight than the vehicle group”. The body weight ([6]; 5 mg/kg ip PND4-7 before HI, PND 8, 9, 10, 12, vs sham) was “sham operated animals body weight was significantly higher”, the body weight ([6]; 5 mg/kg ip PND4-7 before HI, PND 14, vs vehicle) was “significantly higher body weight than the vehicle group” and the body weight ([6]; 10 mg/kg ip PND4-7 before HI, PND 9, vs vehicle) was “significantly higher body weight than the vehicle group”. For the same compound, the body weight ([6]; 10 mg/kg ip PND4-7 before HI, PND 10, 11 and 12, vs vehicle) was “significantly higher body weight than the vehicle group”, the body weight ([6]; 10 mg/kg ip PND4-7 before HI, PND 14, vs vehicle) was “significantly higher body weight than the vehicle group” and the body weight ([6]; 50 mg/kg ip PND4-7 before HI, PND 8, 9, 10, 12, vs sham) was “sham operated animals body weight was significantly higher”. The body weight ([6]; 50 mg/kg ip PND4-7 before HI, PND 11, 13, 14, vs sham) was “sham operated animals had significantly higher body weight” and the body weight ([6]; estetrol pre-treated (1, 5, 10, 50 mg/kg) ip PND4-7 before HI, PND 8 and 13, vs vehicle) was “significantly higher post-operative body weight than the vehicle pre-treated animals”.
